Reference: patent publication US7858609B2, “Solid ganaxolone formulations and methods for the making and use thereof” (Marinus Pharmaceuticals, priority 2005, dated 2010)

Assay: Solubility of ganaxolone using water soluble beta cyclodextrins
Type: physicochemical
Details: using water soluble beta cyclodextrins (beta-sulfobutyl-cyclodextrin, 2-hydroxypropylbetacyclodextrin)
Description: Ganaxolone formulations suitable for intramuscular, subcutaneous, or intravenous injection may comprise physiologically acceptable sterile aqueous or non-aqueous solutions, dispersions, suspensions or emulsions, and sterile powders for reconstitution into sterile injectable solutions or dispersions. Examples of suitable aqueous and non-aqueous carriers, diluents, solvents, or vehicles including water, ethanol, polyols (propylene glycol, polyethylene-glycol, glycerol, cremophor and the like), suitable mixtures thereof, vegetable oils (such as olive oil) and injectable organic esters such as ethyl oleate. Additionally, Ganaxolone can be dissolved at concentrations of >1 mg/ml using water soluble beta cyclodextrins (e.g. beta-sulfobutyl-cyclodextrin and 2-hydroxypropylbetacyclodextrin. Proper fluidity can be maintained, for example, by the use of a coating such as lecithin, by the maintenance of the required particle size in the case of dispersions, and by the use of surfactants. Ganaxolone formulations suitable for subcutaneous injection may also contain additives such as preserving, wetting, emulsifying, and dispensing agents. Prevention of the growth of microorganisms can be ensured by various antibacterial and antifungal agents, such as parabens, benzoic acid, benzyl alcohol, chlorobutanol, phenol, sorbic acid, and the like. […]

Q: With `CC(=O)[C@H]1CC[C@H]2[C@@H]3CC[C@H]4C[C@](C)(O)CC[C@]4(C)[C@H]3CC[C@]12C` [Ganaxolone, 3α-hydroxy-3β-methyl-5α-pregnan-20-one] as the compound, how does the dissolved concentration read?
A: Its dissolved concentration is over 1 mg/mL.
